Experiments:
SCD5 = target: T1, SCD5 (Homo sapiens, UniProt Q86SK9); test: Growth inhibition of humanized yeast strain expressing SCD5 as sole desaturase; type: cell-based
T1 construct: host or cells: S. cerevisiae ole1Δ strain (W303 pdr1Δ pdr3Δ background), plasmid pRS316 with TDH3 promoter and CYC1 terminator
T1 sequence (Q86SK9 1-330): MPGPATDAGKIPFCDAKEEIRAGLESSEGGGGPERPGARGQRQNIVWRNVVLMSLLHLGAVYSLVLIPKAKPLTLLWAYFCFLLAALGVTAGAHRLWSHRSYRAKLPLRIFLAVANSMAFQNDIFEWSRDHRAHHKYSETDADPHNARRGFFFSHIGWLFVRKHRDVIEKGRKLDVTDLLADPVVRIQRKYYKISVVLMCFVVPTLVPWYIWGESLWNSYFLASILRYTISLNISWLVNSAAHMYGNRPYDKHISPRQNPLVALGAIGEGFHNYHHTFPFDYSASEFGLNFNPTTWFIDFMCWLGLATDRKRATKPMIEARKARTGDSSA
Procedure, shortened: (§1)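 OD600 growth read-out. ole1Δ yeast, pdr1Δ pdr3Δ, with Ole1/SCD1/SCD5 on a plasmid; SX-Ura media throughout; 2× cell density 0.02 in CSM-Galactose; DMSO compound dilutions; humidified 30° C.; Ole1 stopped at 24 h, SCD1/SCD5 at 40 h.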

SCD1 = target: T2, SCD1 (Homo sapiens, UniProt O00767); test: Growth inhibition of humanized yeast strain expressing SCD1 as sole desaturase; type: cell-based
T2 construct: host or cells: S. cerevisiae ole1Δ strain (W303 pdr1Δ pdr3Δ background), plasmid pRS316 with TDH3 promoter and CYC1 terminator
T2 sequence (O00767 1-359): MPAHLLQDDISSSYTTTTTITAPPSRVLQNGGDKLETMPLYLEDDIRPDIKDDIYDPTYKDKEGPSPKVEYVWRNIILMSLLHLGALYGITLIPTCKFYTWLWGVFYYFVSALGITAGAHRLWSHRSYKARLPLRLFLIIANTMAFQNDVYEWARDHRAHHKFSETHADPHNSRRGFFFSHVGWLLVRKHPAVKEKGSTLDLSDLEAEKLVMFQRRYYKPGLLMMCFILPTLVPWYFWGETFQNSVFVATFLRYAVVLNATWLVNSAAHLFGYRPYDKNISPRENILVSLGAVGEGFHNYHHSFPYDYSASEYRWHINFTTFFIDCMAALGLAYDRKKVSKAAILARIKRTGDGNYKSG
Procedure, shortened: as §1

[1] = growth inhibition of humanized yeast strain expressing human SCD5
[2] = growth inhibition of humanized yeast strain expressing human SCD1
[3] = humanized yeast strain expressing SCD5
[4] = humanized yeast strain expressing SCD1

CC(C)(C)OC(=O)N1CC=C(c2cnc(-c3ccc4cnn(C5COC5)c4c3)nc2)CC1 [Compound 984]
IC50 (SCD5; humanized yeast strain, 40 h): > 45 µM | IC50 (SCD1; humanized yeast strain, 40 h): > 45 µM

CC(C)(C)CC(=O)N1CCC(c2nc(-c3ccc4cnn(C(=O)C5CCO5)c4c3)no2)CC1 (stereo not drawn) [Compound 727]
IC50 (SCD5; [1]): > 45 µM | IC50 (SCD1; [2]): > 45 µM

CC(C)C(=O)N1CCC(c2noc(N3CCc4c(cnn4C4COC4)C3)n2)CC1 [Compound 1194]
IC50 (SCD5; humanized yeast strain, 40 h): > 45 µM | IC50 (SCD1; humanized yeast strain, 40 h): > 45 µM

CC(C)(C)OC(=O)N1CCC(c2noc(-c3cccc([C@@H]4CCOC4)c3)n2)CC1 [Compound 795]
IC50 (SCD5; humanized yeast strain, 40 h): 0.01 µM | IC50 (SCD1; humanized yeast strain, 40 h): > 45 µM

O=C(C1CC1)N1CCC(c2noc(-c3ccnc(NC4COC4)c3)n2)CC1 [Compound 1115]
IC50 (SCD5; humanized yeast strain, 40 h): 10.6 µM | IC50 (SCD1; humanized yeast strain, 40 h): > 45 µM

CC(C)(C)OC(=O)N1CCN(c2noc(-c3ccc4c(c3)C3(CCC3)OC4)n2)CC1 [Compound 831]
IC50 (SCD5; humanized yeast strain, 40 h): 1.2 µM | IC50 (SCD1; humanized yeast strain, 40 h): > 45 µM

O=C(C1CC1)N1CCN(c2noc(-c3ccnc(Cl)c3)n2)CC1 [Compound 1118]
IC50 (SCD5; humanized yeast strain, 40 h): > 45 µM | IC50 (SCD1; humanized yeast strain, 40 h): > 45 µM

CC(C)C(=O)N1CCC(c2noc(-c3ccnc(N(C)C4COC4)c3)n2)CC1 [Compound 1155]
IC50 (SCD5; humanized yeast strain, 40 h): > 45 µM | IC50 (SCD1; humanized yeast strain, 40 h): > 45 µM

CC(C)n1ncc2ccc(-c3nc(N4CCC5(CCO5)CC4)no3)cc21 [Compound 762]
IC50 (SCD5; humanized yeast strain, 40 h): 5.25 µM | IC50 (SCD1; humanized yeast strain, 40 h): > 45 µM

CC(C)n1ncc2ccc(-c3noc(C4CCN(C(=O)CNC(=O)OC(C)(C)C)CC4(F)F)n3)cc21 (stereo not drawn) [Compound 525]
IC50 (SCD5; [3]): > 45 µM | IC50 (SCD1; [4]): > 45 µM

CC(C)n1ncc2ccc(-c3noc(C4CCN(C(=O)CNC(=O)c5cccc(C#N)c5)CC4(F)F)n3)cc21 (stereo not drawn) [Compound 523]
IC50 (SCD5; [3]): > 45 µM | IC50 (SCD1; [4]): > 45 µM

CC(C)C(=O)N1CCC(c2noc(-c3ccnc(Cl)c3)n2)CC1 [Compound 1129]
IC50 (SCD5; humanized yeast strain, 40 h): > 45 µM | IC50 (SCD1; humanized yeast strain, 40 h): > 45 µM

COC(=O)N1CCC(c2cc(-c3cc4c(cn3)cnn4C3COC3)on2)CC1 [Compound 1111]
IC50 (SCD5; humanized yeast strain, 40 h): 0.179 µM | IC50 (SCD1; humanized yeast strain, 40 h): > 45 µM

CC(C)(C)OC(=O)N1CCC(c2noc(-c3ccc(=O)n(C4CCOC4)c3)n2)CC1 (stereo not drawn) [Compound 1114]
IC50 (SCD5; humanized yeast strain, 40 h): 0.116 µM | IC50 (SCD1; humanized yeast strain, 40 h): > 45 µM

CCC(=O)N1CCC(c2noc(-c3cc(F)c4cnn(C5COC5)c4c3)n2)CC1 [Compound 1072]
IC50 (SCD5; humanized yeast strain, 40 h): 0.021 µM | IC50 (SCD1; humanized yeast strain, 40 h): > 45 µM

CC(C)C(=O)N1CCC(c2noc(-c3cc(F)c4cnn(C5COC5)c4c3)n2)CC1 [Compound 1068]
IC50 (SCD5; humanized yeast strain, 40 h): 0.00375 µM | IC50 (SCD1; humanized yeast strain, 40 h): > 45 µM

CC1(CC(=O)N2CCC(c3nc(-c4ccc5cnn(C6COC6)c5c4)ns3)CC2)CC1 [Compound 801]
IC50 (SCD5; humanized yeast strain, 40 h): 0.363 µM | IC50 (SCD1; humanized yeast strain, 40 h): > 45 µM

COCCOC(=O)N1CCC(c2noc(-c3ccc4cnn(C5COC5)c4c3)n2)CC1 [Compound 929]
IC50 (SCD5; humanized yeast strain, 40 h): 4.42 µM | IC50 (SCD1; humanized yeast strain, 40 h): > 45 µM

Cn1cc(-c2cc(-c3nc(C4CCN(C(=O)OC5(C)CC5)CC4)no3)ccn2)cn1 [Compound 1186]
IC50 (SCD5; humanized yeast strain, 40 h): 6.08 µM | IC50 (SCD1; humanized yeast strain, 40 h): 10 µM

CC(C)Nc1cc(-c2nc(N3CCN(C(=O)OC(C)(C)C)CC3)no2)ccn1 [Compound 809]
IC50 (SCD5; humanized yeast strain, 40 h): 0.124 µM | IC50 (SCD1; humanized yeast strain, 40 h): > 45 µM

Cc1nn(C)c2cc(-c3nc(C4CCN(S(=O)(=O)C5CC5)CC4)no3)ccc12 [Compound 922]
IC50 (SCD5; humanized yeast strain, 40 h): 6.56 µM | IC50 (SCD1; humanized yeast strain, 40 h): > 45 µM

COC(=O)N1CCC(c2noc(-c3ccnc(C4CCCO4)c3)n2)CC1 (stereo not drawn) [Compound 973]
IC50 (SCD5; humanized yeast strain, 40 h): > 45 µM | IC50 (SCD1; humanized yeast strain, 40 h): > 45 µM

CC1(OC(=O)N2CCC(c3noc(-c4ccc5cnn(C6CS(=O)(=O)C6)c5c4)n3)CC2)CC1 [Compound 1060]
IC50 (SCD5; humanized yeast strain, 40 h): 0.184 µM | IC50 (SCD1; humanized yeast strain, 40 h): > 45 µM

CC(=O)N1CC(n2cc3ccc(-c4nc(N5CCN(C(=O)OC(C)(C)C)CC5)no4)cc3n2)C1 [Compound 914]
IC50 (SCD5; humanized yeast strain, 40 h): 6.17 µM | IC50 (SCD1; humanized yeast strain, 40 h): > 45 µM

CC(C)(C)OC(=O)N1CCN(c2nc(-c3ccc4cnn(C5CNC5)c4c3)no2)CC1 [Compound 910]
IC50 (SCD5; humanized yeast strain, 40 h): 0.01 µM | IC50 (SCD1; humanized yeast strain, 40 h): > 45 µM

CC(C)(C)CC(=O)N1CC(c2nc(-c3ccc4cnn(C5COC5)c4c3)no2)C1 [Compound 707]
IC50 (SCD5; [1]): 14.5 µM | IC50 (SCD1; [2]): > 45 µM

CC1(OC(=O)N2CCC(c3nc(-c4ccc5cnn(C6CCOC6)c5c4)no3)CC2)CC1 (stereo not drawn) [Compound 777]
IC50 (SCD5; humanized yeast strain, 40 h): 0.01 µM | IC50 (SCD1; humanized yeast strain, 40 h): 4.16 µM

CC(C)(C)OC(=O)N1CCC(c2noc(-c3cccc(C4CCOC4)n3)n2)CC1 (stereo not drawn) [Compound 1189]
IC50 (SCD5; humanized yeast strain, 40 h): 7.72 µM | IC50 (SCD1; humanized yeast strain, 40 h): > 45 µM

C[C@H](NC(=O)[C@H]1[C@@H]2CN(C(=O)OC(C)(C)C)C[C@@H]21)c1ccccc1 [Compound 769]
IC50 (SCD5; humanized yeast strain, 40 h): > 45 µM | IC50 (SCD1; humanized yeast strain, 40 h): > 45 µM

CC(C)C(=O)N1CC[C@@H](c2noc(-c3ccc4cnn(C5COC5)c4c3)n2)C[C@@H]1C [Compound 1055]
IC50 (SCD5; humanized yeast strain, 40 h): 0.00488 µM | IC50 (SCD1; humanized yeast strain, 40 h): > 45 µM

Cc1nn(C)c2cc(-c3noc(C4CCN(C(=O)CNC(=O)c5ccc(C#N)cc5)CC4(F)F)n3)ccc12 (stereo not drawn) [Compound 601]
IC50 (SCD5; [3]): 5.69 µM | IC50 (SCD1; [4]): > 45 µM

CCC(=O)N1CCC(c2nc(-c3ccc4onc(C(C)C)c4c3)no2)CC1 [Compound 940]
IC50 (SCD5; humanized yeast strain, 40 h): 31.2 µM | IC50 (SCD1; humanized yeast strain, 40 h): > 45 µM

CC(C)(C)OC(=O)N1CCN(c2noc(-c3ccnc(Cl)c3)n2)CC1 [Compound 754]
IC50 (SCD5; humanized yeast strain, 40 h): 16.5 µM | IC50 (SCD1; humanized yeast strain, 40 h): > 45 µM

O=C(c1ccccc1F)N1CCN(c2noc(-c3ccc4cnn(C5CNC5)c4c3)n2)CC1 [Compound 957]
IC50 (SCD5; humanized yeast strain, 40 h): 0.01 µM | IC50 (SCD1; humanized yeast strain, 40 h): 27.9 µM

CC(C)n1ncc2c1CN(c1noc(C3CCN(C(=O)OC(C)(C)C)CC3)n1)CC2 [Compound 893]
IC50 (SCD5; humanized yeast strain, 40 h): 0.01 µM | IC50 (SCD1; humanized yeast strain, 40 h): > 45 µM

COC(=O)N1CCC(c2noc(-c3ccc4cnn(C5COC5)c4c3)n2)CC1 [Compound 676]
IC50 (SCD5; [1]): 0.013 µM | IC50 (SCD1; [2]): > 45 µM

CC(C)(C)CC(=O)N1CCC(c2nc(-c3ccc4cn[nH]c4c3)no2)CC1 [Compound 732]
IC50 (SCD5; [1]): 31.8 µM | IC50 (SCD1; [2]): > 45 µM

CNC(=O)Cn1cc2ccc(-c3noc(C4CCN(C(=O)OC(C)(C)C)CC4)n3)cc2n1 [Compound 678]
IC50 (SCD5; [1]): 3.87 µM | IC50 (SCD1; [2]): > 45 µM

CC(C)(C)OC(=O)N1CCC(c2nc(-c3ccc4cn(C5CN(C(=O)OC(C)(C)C)C5)nc4c3)no2)CC1 [Compound 656]
IC50 (SCD5; [1]): > 45 µM | IC50 (SCD1; [2]): > 45 µM

COC(=O)N1CCC(c2nc(-c3ccc4cnn(C5COC5)c4c3)no2)CC1 [Compound 635]
IC50 (SCD5; [1]): 0.397 µM | IC50 (SCD1; [2]): > 45 µM

CC(C)C(=O)N1CCC(c2noc(-c3ccnc(-c4cnn(C)c4)c3)n2)CC1 [Compound 1187]
IC50 (SCD5; humanized yeast strain, 40 h): > 45 µM | IC50 (SCD1; humanized yeast strain, 40 h): > 45 µM

COC(=O)N1CCC(c2noc(-c3ccc4cnn([C@H]5CCOC5)c4c3)n2)CC1 [Compound 878]
IC50 (SCD5; humanized yeast strain, 40 h): 0.005 µM | IC50 (SCD1; humanized yeast strain, 40 h): > 45 µM

O=C(N1CCC(c2noc(-c3cc(F)c4cnn(C5COC5)c4c3)n2)CC1)C1(F)CC1 [Compound 1062]
IC50 (SCD5; humanized yeast strain, 40 h): 0.01 µM | IC50 (SCD1; humanized yeast strain, 40 h): 29 µM

CC(C)n1ncc2ccc(-c3noc(N4CCC(CO)CC4)n3)cc21 [Compound 637]
IC50 (SCD5; [1]): > 45 µM | IC50 (SCD1; [2]): > 45 µM

CC(C)C(=O)N1CCC(c2noc(-c3ccc4oc(=O)n(C5COC5)c4c3)n2)CC1 [Compound 1126]
IC50 (SCD5; humanized yeast strain, 40 h): 2.74 µM | IC50 (SCD1; humanized yeast strain, 40 h): > 45 µM

CC(C)(C)OC(=O)N1CCC(c2noc(-c3ccc4cnn([C@@H]5CCOC5)c4c3)n2)CC1 [Compound 1092]
IC50 (SCD5; humanized yeast strain, 40 h): 0.01 µM | IC50 (SCD1; humanized yeast strain, 40 h): 32.3 µM

CC(C)n1ncc2ccc(-c3noc(N4CCC5(CCO5)CC4)n3)cc21 [Compound 744]
IC50 (SCD5; [1]): > 45 µM | IC50 (SCD1; [2]): > 45 µM

CNC(=O)O[C@H]1CC[C@@H](c2nc(-c3ccc4cnn(C(C)C)c4c3)no2)CC1 [Compound 647]
IC50 (SCD5; [1]): 9.37 µM | IC50 (SCD1; [2]): > 45 µM
